In BindingDB's records for PubMed 12533678 (Japanese Foundation For Cancer Research, 2003) one finds IC50 data, which are given here for 4 compounds.

Series [1] in a line: TP_TRANSPORTER: drug resistance(Mitoxantrone) in BCRP-expressing K562 cells.
The nature of series [2]: TP_TRANSPORTER: drug resistance(SN-38) in BCRP-expressing K562 cells.

As usually defined, the IC50 is the concentration that gives 50% inhibition. A high value points to a need for much substance.

On to `CC/C(=C(/CC)c1ccc(O)cc1)c1ccc(O)cc1`, for which the IC50 was 0.5 µM in series [1] and above 0.5 µM in series [2].

As for `CC/C(=C(/c1ccc(OCCN(C)C)cc1)c1ccc(OCc2ccc([N+](=O)[O-])cc2)cc1)c1ccccc1`, the IC50 was 1.5 µM in series [1] and above 2 µM in series [2].

For `CC/C(=C(/c1ccc(OCCN(C)C)cc1)c1ccc(OCc2ccccc2)cc1)c1ccccc1`, the IC50 in series [1] and in series [2] was above 2 µM in each case.

As for `CCC(=O)Oc1ccc(/C(CC)=C(\CC)c2ccc(OC(=O)CC)cc2)cc1` [propanoic acid [4-[(E)-4-[4-(1-oxopropoxy)phenyl]hex-3-en-3-yl]phenyl] ester], the IC50 in series [1] and in series [2] was above 3 µM in each case.
